Among the data in patent US20160145242A1, “PHENYLIMIDAZOLE DERIVATIVE, AND THERAPEUTIC MEDICINE OR PREVENTIVE MEDICINE FOR INFLAMMATORY DISEASE, ETC” (NIPPON SODA CO., LTD., priority 2013, published 2016) are inhibition and IC50 values, retold here.

Where two headings read alike, the source gives them in different places. A value given as a limit tells only on which side of the number the result lay.

Data set [1] addresses T1, rabbit reticulocyte-derived 15-lipoxygenase (Oryctolagus cuniculus, UniProt P12530).
T1 construct: Rabbit reticulocyte-derived 15-lipoxygenase; from tissue; host or cells: rabbit reticulocytes
T1 sequence (P12530 1-663): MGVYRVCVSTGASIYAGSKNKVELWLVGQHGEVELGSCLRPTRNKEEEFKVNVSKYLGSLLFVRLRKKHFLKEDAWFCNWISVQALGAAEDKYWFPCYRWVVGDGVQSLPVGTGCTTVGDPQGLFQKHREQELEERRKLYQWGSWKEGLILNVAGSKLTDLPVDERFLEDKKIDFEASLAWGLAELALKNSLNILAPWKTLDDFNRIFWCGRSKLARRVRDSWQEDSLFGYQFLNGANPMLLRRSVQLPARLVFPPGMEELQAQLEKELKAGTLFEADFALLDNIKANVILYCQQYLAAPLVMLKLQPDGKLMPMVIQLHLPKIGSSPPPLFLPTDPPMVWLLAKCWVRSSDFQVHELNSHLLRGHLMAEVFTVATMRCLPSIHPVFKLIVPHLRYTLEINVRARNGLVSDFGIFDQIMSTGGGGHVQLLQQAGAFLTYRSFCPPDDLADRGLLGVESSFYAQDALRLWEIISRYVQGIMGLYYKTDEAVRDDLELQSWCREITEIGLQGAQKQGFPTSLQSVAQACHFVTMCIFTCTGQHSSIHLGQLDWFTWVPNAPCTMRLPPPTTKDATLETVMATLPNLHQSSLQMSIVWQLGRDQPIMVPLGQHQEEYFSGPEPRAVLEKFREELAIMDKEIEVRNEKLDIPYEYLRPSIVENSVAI
In words: 15-Lipoxygenase activity inhibitory action. It counts as biochemical. Here is the method: The inhibitory action of the compound of the present invention with respect to the activity of the present enzyme was examined using rabbit reticulocyte-derived 15-lipoxygenase.
Rabbit reticulocyte-derived 15-lipoxygenase was reacted with 260 μM of linoleic acid and the amount of 13-hydroperoxide which was a reaction product was measured using an absorption spectrometer.

For the next data set, the target named is T2, CYP3A4 (Homo sapiens, UniProt P08684).
T2 construct: Using human liver microsomes pooled as an enzyme source; from tissue; host or cells: pooled human liver microsomes
T2 sequence (P08684 whole entry): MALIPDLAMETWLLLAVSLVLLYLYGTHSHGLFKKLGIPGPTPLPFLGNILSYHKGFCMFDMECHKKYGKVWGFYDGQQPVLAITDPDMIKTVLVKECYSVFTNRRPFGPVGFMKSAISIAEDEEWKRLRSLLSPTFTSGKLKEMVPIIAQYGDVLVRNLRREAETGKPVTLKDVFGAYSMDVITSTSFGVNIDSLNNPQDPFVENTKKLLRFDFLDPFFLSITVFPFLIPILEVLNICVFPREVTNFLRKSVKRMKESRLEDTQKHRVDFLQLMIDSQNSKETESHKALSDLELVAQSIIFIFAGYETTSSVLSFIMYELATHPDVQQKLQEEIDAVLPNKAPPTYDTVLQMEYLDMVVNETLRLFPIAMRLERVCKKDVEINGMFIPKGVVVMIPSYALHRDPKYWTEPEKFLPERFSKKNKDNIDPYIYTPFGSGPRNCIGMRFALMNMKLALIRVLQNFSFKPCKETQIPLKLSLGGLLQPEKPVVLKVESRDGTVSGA
In words: Cytochrome P450 inhibitory action, CYP3A4 in human liver microsomes. The format is in vitro ADME. The settings on record: for inhibition at 10 min, 10 µM: pooled human liver microsomes, read-out: inhibition rate in the shown concentration. Here is the method: An inhibitory action of the compound of the present invention with respect to CYP2D6 (dextromethorphan was used as a substrate) and CYP3A4 (midazolam and testosterone were used as substrates) which are isozymes of cytochrome P450 (hereinafter, referred to as “CYP”) serving as a major drug-metabolizing enzyme was examined using human liver microsomes.
Using human liver microsomes pooled as an enzyme source, 1.3 mM NADP as a coenzyme, 3.3 mM D-glucose-6-phosphate, and 0.4 U/mL D-glucose-6-phosphate dehydrogenase, the corresponding substrate ([…] dextromethorphan for CYP2D6, 5 μM midazolam or 50 µM testosterone for CYP3A4) and the compound of the present invention were added such that the final concentration became 0.1, 1, 10 μM and then incubated at 37° C. for 10 minutes. The inhibition rate (%) of the compound of the present invention in each concentration was calculated by quantifying metabolites (CYP2D6; dextrorphan, CYP3A4; 1-hydroxymidazolam or 6β hydroxytestosterone) using HPLC-MS/MS and setting the value of the activity of an enzyme when drug was not incorporated therein as 100%. 50% inhibitory concentration IC50 (μM) was calculated by drawing a straight line between the concentration where the inhibition rate exceeds 50% and the concentration where the inhibition rate is less than 50% in a graph showing a relationship between the inhibition rate and the concentration and interpolating the concentration that becomes 50% inhibition.

Regarding `CC(=O)N1CCN(c2ccc(N)c(-n3ccnc3)c2)CC1` [Compound 1-1, 4-acetyl-1-(4-amino-3-imidazole-1-yl-phenyl)piperazine], in data set [1] (3 μM, substrate linoleic acid 260 μM, read-out: 15-lipoxygenase activity inhibition rate), the inhibition at 3 µM was 49%. For the same compound, the IC50 in data set [1] (estimated from 49% inhibition at 3 μM, read-out: 50% inhibitory concentration with respect to 15-lipoxygenase activity) is approximately 3 µM; against CYP3A4 (substrate midazolam), more than 10 µM; against CYP3A4 (substrate testosterone), more than 10 µM. Further, the inhibition at 10 min, 10 µM was 28% at CYP3A4 (probe midazolam (5 μM), substrate midazolam) and 6% on CYP3A4 (probe testosterone (50 M [sic]), substrate testosterone).
